Measured values taken from ChEMBL document CHEMBL1201862, “PubChem BioAssay data set” (2004).
Activity calls are given as the source filed them.

Columns and labels:
Cytochrome P450 2D6 = Cytochrome P450 2D6 (Homo sapiens, UniProt P10635);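 note: CYP2D6 member of a cytochrome P450 panel assay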
[1] = target: T1, Delta-type opioid receptor (Homo sapiens, UniProt P41143); experiment: HTS Image-Based Screen for Antagonists of the DOR Receptor. [Related pubchem assays (depositor defined):AID1777, AID1785, AID1786, AID2133]; type: functional
T1 sequence (P41143 whole entry): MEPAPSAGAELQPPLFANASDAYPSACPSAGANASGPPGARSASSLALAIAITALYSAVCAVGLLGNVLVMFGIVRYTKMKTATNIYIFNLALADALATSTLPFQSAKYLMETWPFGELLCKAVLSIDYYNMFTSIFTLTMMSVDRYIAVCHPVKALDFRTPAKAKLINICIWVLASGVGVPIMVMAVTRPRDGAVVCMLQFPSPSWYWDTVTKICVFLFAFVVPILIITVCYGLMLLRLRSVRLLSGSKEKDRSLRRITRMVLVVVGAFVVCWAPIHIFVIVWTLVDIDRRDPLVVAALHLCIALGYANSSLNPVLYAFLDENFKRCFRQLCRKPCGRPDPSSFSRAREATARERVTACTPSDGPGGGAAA

[2] = target: T2, Kappa-type opioid receptor (Homo sapiens, UniProt P41145); type: functional
T2 sequence (P41145 whole entry): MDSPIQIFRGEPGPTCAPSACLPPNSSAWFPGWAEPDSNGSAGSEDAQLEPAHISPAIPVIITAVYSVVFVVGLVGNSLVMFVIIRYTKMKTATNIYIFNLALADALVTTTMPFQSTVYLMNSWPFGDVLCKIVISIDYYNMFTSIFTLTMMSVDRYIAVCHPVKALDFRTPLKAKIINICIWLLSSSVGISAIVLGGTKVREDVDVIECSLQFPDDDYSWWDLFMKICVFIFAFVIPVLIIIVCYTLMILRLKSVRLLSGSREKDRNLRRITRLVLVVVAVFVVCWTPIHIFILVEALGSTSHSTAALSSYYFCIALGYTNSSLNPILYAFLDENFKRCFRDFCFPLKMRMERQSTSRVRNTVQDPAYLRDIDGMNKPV

Mu-type opioid receptor = Mu-type opioid receptor (Homo sapiens, UniProt P35372); experiment: HTS Image-Based Screen for Agonists of the MOR Receptor. [Related pubchem assays (depositor defined):AID1777, AID1785, AID1786, AID2133]; type: functional;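 note: imaging of beta-arrestin GFP recruitment into spots after receptor activation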
Sequence of Mu-type opioid receptor (P35372 whole entry): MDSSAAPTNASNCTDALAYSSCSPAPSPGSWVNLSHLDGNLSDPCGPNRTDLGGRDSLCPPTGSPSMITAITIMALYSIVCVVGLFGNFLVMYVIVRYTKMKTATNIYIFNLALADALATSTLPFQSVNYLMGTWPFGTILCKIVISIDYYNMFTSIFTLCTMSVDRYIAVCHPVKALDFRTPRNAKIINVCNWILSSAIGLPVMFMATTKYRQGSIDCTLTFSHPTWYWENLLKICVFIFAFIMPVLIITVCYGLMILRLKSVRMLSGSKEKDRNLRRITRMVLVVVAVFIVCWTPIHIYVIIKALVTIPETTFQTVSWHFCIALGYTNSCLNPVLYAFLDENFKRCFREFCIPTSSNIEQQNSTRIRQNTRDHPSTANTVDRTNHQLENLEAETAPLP

Beta-galactosidase = Beta-galactosidase (Escherichia coli, UniProt Q8VNN2); type: functional
Sequence of Beta-galactosidase (Q8VNN2 whole entry): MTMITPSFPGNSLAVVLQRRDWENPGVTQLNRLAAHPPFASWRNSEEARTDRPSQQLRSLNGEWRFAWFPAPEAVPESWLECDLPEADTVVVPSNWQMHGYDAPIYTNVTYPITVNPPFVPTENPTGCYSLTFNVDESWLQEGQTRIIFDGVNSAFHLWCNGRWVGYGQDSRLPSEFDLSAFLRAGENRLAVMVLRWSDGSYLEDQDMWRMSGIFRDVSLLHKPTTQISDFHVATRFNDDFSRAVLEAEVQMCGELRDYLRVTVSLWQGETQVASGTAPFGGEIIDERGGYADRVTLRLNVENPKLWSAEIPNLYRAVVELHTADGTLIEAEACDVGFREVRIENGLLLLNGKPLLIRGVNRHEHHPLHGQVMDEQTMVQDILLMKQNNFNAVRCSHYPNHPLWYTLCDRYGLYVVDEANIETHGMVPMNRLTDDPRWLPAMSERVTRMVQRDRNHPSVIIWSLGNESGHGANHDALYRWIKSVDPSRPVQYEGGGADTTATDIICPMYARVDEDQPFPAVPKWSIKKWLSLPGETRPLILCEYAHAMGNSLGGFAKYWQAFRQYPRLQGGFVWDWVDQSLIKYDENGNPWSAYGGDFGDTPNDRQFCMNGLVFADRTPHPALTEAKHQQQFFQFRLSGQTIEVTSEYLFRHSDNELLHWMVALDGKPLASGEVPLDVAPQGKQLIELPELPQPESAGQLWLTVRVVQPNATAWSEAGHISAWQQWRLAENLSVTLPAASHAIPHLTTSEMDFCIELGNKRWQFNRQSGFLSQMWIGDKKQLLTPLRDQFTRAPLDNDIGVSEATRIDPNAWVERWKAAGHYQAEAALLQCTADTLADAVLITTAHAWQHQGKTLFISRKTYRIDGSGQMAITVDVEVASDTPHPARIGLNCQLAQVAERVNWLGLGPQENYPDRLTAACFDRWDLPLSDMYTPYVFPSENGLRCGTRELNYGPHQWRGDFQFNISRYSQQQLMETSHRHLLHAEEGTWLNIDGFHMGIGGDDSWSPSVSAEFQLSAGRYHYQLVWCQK

[3] = target: T1, Delta-type opioid receptor; experiment: HTS Image-Based Screen for Agonists of the DOR Receptor. [Related pubchem assays (depositor defined):AID1777, AID1786, AID2133]; type: functional
[4] = target: T2, Kappa-type opioid receptor; type: functional; remark: listed apart in the source
[5] = target: T3, RNA-binding protein pos-1 (Caenorhabditis elegans, UniProt G5EF15); experiment: disruptors of C. elegans POS-1 RNA interaction – biochemical, fluorescence polarization, dose response (AID 1964);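 note: purified POS-1 fused to maltose binding protein made in E. coli; potency of compounds blocking POS-1 binding to fluorescent RNA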
T3 sequence (G5EF15 whole entry): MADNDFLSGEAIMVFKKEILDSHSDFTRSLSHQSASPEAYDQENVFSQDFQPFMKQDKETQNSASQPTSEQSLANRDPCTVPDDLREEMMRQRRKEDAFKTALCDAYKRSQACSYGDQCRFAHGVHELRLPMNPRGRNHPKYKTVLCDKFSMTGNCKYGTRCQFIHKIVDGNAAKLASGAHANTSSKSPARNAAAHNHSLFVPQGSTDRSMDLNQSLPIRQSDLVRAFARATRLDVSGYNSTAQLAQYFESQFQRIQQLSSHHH

Ion channel NompC = Ion channel NompC (Danio rerio, UniProt Q7T1G6); experiment: Dose response cell-based high-throughput screening assay for agonists of the transient receptor potential channel N1 (TRPN1). [Related pubchem assays (depositor defined):AID1424, AID1448]; type: functional
Sequence of Ion channel NompC (Q7T1G6 whole entry): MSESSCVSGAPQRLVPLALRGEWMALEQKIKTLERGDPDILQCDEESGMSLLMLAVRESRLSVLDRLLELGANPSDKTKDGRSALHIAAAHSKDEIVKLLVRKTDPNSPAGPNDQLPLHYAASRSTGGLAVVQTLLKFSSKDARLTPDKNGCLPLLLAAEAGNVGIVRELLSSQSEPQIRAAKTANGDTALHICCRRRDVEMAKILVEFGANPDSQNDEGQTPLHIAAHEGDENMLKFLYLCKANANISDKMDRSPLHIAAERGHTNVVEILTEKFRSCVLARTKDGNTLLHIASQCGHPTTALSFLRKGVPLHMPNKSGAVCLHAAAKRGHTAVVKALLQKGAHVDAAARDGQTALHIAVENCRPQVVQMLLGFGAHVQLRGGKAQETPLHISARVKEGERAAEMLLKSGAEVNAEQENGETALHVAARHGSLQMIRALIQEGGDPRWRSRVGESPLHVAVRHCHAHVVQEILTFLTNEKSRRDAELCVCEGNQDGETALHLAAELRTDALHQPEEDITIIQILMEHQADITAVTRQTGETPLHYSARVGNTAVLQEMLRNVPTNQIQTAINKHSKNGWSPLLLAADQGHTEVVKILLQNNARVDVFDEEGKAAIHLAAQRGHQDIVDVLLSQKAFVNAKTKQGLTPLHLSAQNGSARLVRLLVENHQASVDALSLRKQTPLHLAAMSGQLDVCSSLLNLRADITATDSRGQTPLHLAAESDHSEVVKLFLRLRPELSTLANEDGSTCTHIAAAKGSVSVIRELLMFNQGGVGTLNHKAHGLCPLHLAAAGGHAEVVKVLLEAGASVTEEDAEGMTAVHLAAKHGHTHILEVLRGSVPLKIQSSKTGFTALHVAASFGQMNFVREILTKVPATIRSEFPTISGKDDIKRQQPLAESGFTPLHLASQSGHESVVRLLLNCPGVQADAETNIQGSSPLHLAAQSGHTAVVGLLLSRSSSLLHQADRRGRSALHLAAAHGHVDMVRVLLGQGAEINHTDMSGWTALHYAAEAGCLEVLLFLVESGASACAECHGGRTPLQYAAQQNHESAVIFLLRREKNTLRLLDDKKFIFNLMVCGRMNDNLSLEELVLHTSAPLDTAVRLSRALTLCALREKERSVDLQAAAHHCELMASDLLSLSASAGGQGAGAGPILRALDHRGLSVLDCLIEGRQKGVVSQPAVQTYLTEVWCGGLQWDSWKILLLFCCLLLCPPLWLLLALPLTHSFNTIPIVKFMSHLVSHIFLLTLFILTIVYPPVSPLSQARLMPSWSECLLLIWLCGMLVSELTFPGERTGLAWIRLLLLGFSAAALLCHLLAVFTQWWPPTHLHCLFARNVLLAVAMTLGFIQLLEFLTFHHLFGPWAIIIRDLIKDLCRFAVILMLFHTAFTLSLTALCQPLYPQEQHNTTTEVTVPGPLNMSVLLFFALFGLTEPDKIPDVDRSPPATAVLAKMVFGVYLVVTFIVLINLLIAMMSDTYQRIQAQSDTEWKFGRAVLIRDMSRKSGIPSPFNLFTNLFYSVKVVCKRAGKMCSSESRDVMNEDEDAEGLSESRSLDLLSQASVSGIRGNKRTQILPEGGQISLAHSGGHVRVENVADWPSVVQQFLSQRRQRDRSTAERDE

Mucolipin-3 = target: T4, Mucolipin-3 (Homo sapiens, UniProt Q8TDD5); experiment: Fluorescence counterscreen assay for […] agonists: dose response cell-based high-throughput screening assay to identify agonists of the transient receptor potential channel ML3 (TRPML3). [Related pubchem assays: 1424, 1448 ]; type: functional
T4 sequence (Q8TDD5 whole entry): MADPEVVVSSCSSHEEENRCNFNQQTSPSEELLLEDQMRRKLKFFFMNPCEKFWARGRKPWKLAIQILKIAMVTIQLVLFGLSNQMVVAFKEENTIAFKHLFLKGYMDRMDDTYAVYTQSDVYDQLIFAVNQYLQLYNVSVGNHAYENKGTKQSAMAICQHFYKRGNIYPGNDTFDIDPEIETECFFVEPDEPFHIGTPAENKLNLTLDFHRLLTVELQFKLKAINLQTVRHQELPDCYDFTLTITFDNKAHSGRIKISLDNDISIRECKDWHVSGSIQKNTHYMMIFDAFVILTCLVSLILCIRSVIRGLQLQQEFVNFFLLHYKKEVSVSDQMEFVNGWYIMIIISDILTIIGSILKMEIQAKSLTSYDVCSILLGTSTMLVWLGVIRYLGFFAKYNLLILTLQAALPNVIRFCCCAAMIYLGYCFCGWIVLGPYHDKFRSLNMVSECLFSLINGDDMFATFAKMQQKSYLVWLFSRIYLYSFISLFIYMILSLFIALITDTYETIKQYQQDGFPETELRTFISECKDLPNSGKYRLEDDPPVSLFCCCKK

[6] = target: T5, Zinc finger protein mex-5 (Caenorhabditis elegans, UniProt Q9XUB2); experiment: potency of MEX-5 RNA-binding blockers – biochemical, C. elegans, fluorescence polarization, dose response (AID 1960)
T5 sequence (Q9XUB2 whole entry): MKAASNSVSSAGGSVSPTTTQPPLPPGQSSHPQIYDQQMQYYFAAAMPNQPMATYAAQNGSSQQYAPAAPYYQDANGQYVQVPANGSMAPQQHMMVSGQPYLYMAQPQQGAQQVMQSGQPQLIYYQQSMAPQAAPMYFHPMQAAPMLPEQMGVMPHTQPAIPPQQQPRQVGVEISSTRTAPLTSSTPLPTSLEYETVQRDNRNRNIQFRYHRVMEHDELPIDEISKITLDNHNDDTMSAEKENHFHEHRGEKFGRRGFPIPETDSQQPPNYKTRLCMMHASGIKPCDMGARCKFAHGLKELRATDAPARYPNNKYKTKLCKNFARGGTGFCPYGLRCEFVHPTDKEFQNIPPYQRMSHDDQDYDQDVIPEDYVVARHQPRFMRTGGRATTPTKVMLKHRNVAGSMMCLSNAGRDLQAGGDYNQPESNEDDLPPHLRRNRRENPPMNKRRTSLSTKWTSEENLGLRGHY

[7] = Vero E6 cell cytotoxicity, dose response, cytotoxicity control for non-replicating M. tuberculosis project, secondary assay (AID 492998); type: functional, VeroE6; conditions: Vero C1008
[8] = THP-1 cell cytotoxicity, dose response, cytotoxicity control for non-replicating M. tuberculosis project (AID 489025); type: functional
cells = type: functional
[9] = target: T6, Short transient receptor potential channel 4 (Mus musculus, UniProt Q9QUQ5); experiment: calcium entry via TRPC4 opening agents – cell-based, HEK293 TRPC4/mu-opioid, Fluo-4 calcium, dose response (AID 434937); type: functional
T6 sequence (Q9QUQ5 whole entry): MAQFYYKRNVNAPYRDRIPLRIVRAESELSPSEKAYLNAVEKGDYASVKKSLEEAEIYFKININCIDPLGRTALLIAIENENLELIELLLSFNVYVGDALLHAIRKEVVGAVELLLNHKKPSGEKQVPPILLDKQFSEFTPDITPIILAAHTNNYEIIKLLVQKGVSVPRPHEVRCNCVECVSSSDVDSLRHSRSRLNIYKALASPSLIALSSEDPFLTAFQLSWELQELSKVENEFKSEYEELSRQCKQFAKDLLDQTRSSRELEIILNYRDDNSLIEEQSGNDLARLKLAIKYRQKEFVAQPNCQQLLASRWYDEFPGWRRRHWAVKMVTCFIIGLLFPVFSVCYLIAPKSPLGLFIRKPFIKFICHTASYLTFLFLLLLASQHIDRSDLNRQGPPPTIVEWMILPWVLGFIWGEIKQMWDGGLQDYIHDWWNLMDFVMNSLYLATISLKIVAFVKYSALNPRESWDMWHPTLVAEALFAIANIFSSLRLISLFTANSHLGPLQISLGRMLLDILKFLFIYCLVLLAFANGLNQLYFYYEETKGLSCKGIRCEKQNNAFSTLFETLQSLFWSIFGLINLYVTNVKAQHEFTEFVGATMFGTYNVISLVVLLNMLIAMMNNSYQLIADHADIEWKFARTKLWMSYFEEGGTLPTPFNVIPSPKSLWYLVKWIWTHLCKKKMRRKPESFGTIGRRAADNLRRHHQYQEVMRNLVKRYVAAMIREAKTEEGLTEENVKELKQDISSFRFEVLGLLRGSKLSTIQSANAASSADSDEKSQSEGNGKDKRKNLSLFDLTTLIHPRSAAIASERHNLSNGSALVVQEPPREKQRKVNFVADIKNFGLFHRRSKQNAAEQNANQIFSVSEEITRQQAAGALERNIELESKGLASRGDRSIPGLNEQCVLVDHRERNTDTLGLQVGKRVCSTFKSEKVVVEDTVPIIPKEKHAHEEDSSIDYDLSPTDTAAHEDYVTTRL

[10] = NIH-3T3 fibroblast cytotoxicity, dose response, cytotoxicity control, cell-based, fluorescence, Alamar Blue, secondary assay (AID 2327); type: functional;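 note: NIH-3T3 mouse fibroblasts cultured with fluconazole at 8 µg/mL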
[11] = fluconazole-exposed Candida albicans growth modulators – fluorescence, retest, confirmation (AID 2467); type: functional, cell-based
[12] = target: T7, Alkaline phosphatase, tissue-nonspecific isozyme (Homo sapiens, UniProt P05186); experiment: potency against alkaline phosphatase TNAP – biochemical, luminescent, dose response, SAR follow-up (AID 1056)
T7 sequence (P05186 whole entry): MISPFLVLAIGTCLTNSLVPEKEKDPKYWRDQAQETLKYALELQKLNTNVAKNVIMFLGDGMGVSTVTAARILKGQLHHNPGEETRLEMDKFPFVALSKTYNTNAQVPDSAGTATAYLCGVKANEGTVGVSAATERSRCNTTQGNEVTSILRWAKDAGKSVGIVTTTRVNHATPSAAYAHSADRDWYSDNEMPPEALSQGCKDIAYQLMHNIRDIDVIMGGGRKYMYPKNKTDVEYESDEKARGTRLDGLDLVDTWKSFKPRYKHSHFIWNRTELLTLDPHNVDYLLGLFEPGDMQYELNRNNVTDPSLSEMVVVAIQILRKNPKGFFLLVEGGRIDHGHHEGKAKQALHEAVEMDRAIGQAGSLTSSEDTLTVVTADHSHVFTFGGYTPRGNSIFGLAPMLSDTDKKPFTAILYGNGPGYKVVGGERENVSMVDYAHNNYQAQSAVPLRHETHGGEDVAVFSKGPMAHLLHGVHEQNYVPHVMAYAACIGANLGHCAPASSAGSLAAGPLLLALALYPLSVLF

[13] = target: Alkaline phosphatase, placental type (Homo sapiens, UniProt P05187); experiment: human placental alkaline phosphatase inhibition – biochemical, luminescence, confirmation (AID 1512); type: functional
[14] = Luminescent dose response cell-based high throughput screening assay for inhibitors of the Janus kinase 2 mutant JAK2V617F. [Related pubchem assays: 1446 (Primary screen.), 1521 (Confirmation assay.), 1486 (Counter screen.)]; type: functional
[15] = target: T8, E3 ubiquitin-protein ligase XIAP (Homo sapiens, UniProt P98170); experiment: Counter Screen using XIAP-Bir3 for Chemical Antagonists of Bir1/2 domains of IAP-family anti-apoptotic proteins. [Related pubchem assays (depositor defined):AID1018, AID1449, AID1514, AID1638, AID1749, AID1750, AID488957, AID488963]
T8 sequence (P98170 whole entry): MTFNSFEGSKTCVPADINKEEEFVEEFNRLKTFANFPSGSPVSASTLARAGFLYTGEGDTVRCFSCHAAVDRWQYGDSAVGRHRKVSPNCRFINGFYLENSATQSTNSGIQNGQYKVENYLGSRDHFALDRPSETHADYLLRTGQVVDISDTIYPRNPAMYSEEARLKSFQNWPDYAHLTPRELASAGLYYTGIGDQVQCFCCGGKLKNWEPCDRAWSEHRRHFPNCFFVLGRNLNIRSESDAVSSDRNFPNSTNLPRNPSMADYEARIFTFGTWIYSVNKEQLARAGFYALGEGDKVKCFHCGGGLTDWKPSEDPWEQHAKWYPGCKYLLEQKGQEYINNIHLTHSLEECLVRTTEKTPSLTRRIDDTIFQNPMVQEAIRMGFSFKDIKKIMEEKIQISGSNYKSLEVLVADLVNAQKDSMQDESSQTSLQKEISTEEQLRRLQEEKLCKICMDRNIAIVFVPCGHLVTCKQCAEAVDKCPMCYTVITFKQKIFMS

[16] = target: T8, E3 ubiquitin-protein ligase XIAP; experiment: small molecules displacing peptide from XIAP – biochemical, IAP family, fluorescence polarization (AID 1018); type: functional
[17] = target: T9, Calpain-2 catalytic subunit (Sus scrofa, UniProt P43367); experiment: m-calpain protease blockers, concentration series – biochemical, fluorogenic peptide substrate, dose response (AID 1420); type: functional
T9 sequence (P43367 whole entry): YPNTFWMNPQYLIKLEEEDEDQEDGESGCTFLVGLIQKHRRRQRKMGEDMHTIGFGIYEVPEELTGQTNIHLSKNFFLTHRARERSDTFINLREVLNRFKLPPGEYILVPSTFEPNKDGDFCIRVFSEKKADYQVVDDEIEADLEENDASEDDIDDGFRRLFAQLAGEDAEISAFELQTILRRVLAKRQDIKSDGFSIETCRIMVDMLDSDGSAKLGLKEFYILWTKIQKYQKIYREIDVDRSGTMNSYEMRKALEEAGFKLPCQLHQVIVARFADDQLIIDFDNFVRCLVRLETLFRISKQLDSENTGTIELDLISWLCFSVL

[18] = target: T10, Heat shock factor protein 1 (Mus musculus, UniProt P38532); experiment: decrease of HSF1-responsive luciferase luminescence – cell-based, NIH3T3, dose retest, confirmation (AID 2382); type: functional;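 note: NIH3T3 fibroblasts with HSF1-driven luciferase reporter stressed by proteasome inhibitor MG132; luminescence from HSF1-driven luciferase expression after 8 hours of MG132 stress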
T10 sequence (P38532 whole entry): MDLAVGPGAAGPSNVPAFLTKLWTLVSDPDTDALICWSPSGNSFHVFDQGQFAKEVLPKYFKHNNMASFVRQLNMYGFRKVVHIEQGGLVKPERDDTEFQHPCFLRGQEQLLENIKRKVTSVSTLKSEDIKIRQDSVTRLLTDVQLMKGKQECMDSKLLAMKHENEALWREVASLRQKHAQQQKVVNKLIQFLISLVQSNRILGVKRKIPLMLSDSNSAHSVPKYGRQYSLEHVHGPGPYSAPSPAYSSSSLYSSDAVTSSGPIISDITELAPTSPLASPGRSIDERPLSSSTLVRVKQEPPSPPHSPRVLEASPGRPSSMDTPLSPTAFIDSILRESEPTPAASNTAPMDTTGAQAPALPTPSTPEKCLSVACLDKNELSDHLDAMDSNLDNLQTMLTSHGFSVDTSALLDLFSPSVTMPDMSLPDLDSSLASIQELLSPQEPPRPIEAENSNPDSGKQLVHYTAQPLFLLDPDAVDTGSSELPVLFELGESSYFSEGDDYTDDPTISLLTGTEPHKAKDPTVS

[19] = target: T6, Short transient receptor potential channel 4; experiment: block of DAMGO-driven TRPC4 calcium entry – cell-based, HEK293 TRPC4/mu-opioid, Fluo-4 calcium, dose response (AID 434942); type: functional;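 note: potency of inhibitors blocking the TRPC4 calcium response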

Sequence of Cytochrome P450 2D6 (P10635 whole entry): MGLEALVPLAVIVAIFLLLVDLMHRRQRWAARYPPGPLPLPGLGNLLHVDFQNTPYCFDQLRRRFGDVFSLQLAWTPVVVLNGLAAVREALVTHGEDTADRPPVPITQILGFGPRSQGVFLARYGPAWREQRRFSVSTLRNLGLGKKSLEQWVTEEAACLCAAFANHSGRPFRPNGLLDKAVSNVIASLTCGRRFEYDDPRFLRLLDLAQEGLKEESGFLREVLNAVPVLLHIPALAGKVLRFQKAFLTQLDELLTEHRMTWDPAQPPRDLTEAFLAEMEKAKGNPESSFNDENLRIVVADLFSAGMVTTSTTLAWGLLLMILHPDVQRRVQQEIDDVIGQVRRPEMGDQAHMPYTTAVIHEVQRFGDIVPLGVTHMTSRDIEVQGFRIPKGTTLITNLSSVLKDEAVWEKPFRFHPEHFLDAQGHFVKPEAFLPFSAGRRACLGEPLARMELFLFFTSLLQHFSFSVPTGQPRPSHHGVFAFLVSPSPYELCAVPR

COc1ccc(-c2csc(N3C(=N)SCC3=O)n2)cc1
AC50 (Cytochrome P450 2D6): 11.2 µM (inconclusive) | IC50 [1]: > 32 µM (inactive) | IC50 [2]: 12.8 µM (active) | EC50 (Mu-type opioid receptor): > 32 µM (inactive) | EC50 (Beta-galactosidase): > 31.5 µM (inactive) | EC50 [3]: > 32 µM (inactive) | IC50 [4]: > 32 µM

CC(C)/C=C1\CC/C(=C\c2ccc(N(C)C)cc2)C1=O
EC50 [5]: > 300 µM (not active) | EC50 (Ion channel NompC): 507 nM (active) | EC50 (Mucolipin-3): 1.9 µM (active) | EC50 [6]: > 300 µM (inconclusive)

COc1cccc(/C=C2\SC(=S)N(CCC(=O)N3CCCCC3)C2=O)c1
CC50 [7]: 8.75 µM (active) | CC50 [8]: 18.6 µM (active) | IC50 (cells): 17.2 µM (active)

Cc1ccccc1C(=O)NNC(=S)NC(=O)c1ccc(Cl)cc1Cl
EC50 [9]: 1.33 µM (active) | EC50 [10]: > 160 µM (inactive) | EC50 [11]: 1.75 µM (active)

COc1ccc(-n2nnnc2SCC(=O)c2ccc(O)c(O)c2)cc1
IC50 [12]: 5.93 µM (active) | IC50 [13]: 1.42 µM (active) | IC50 [14]: 1.46 µM (active)

COc1ccc(/C=C(\NC(=O)c2ccccc2Cl)C(=O)NCCCC(=O)O)cc1
IC50 [15]: > 100 µM (inactive) | IC50 [16]: > 100 µM (not active) | IC50 [17]: > 50 µM (not active)

O=C(c1ccc(O)cc1)c1ccc(C(=O)O)c(C(=O)O)c1
EC50 [18]: > 195 µM (not active) | IC50 [15]: > 100 µM (inactive) | IC50 [16]: > 100 µM (not active)

CCn1c(SCC(=O)c2cc(C)n(CC3CCCO3)c2C)nc2ccccc21 (stereo not drawn)
EC50 [19]: 5.31 µM (active) | EC50 [9]: 9.44 µM (active)
